Measured values reported in ChEMBL document CHEMBL3112529, “Synthesis of a C-phosphonate mimic of maltose-1-phosphate and inhibition studies on Mycobacterium tuberculosis GlgE” (Bioorg Med Chem, 2014).

Target: T1, Alpha-1,4-glucan:maltose-1-phosphate maltosyltransferase (Mycobacterium tuberculosis (strain ATCC 25618 / H37Rv), UniProt P9WQ17)
T1 sequence (P9WQ17 whole entry): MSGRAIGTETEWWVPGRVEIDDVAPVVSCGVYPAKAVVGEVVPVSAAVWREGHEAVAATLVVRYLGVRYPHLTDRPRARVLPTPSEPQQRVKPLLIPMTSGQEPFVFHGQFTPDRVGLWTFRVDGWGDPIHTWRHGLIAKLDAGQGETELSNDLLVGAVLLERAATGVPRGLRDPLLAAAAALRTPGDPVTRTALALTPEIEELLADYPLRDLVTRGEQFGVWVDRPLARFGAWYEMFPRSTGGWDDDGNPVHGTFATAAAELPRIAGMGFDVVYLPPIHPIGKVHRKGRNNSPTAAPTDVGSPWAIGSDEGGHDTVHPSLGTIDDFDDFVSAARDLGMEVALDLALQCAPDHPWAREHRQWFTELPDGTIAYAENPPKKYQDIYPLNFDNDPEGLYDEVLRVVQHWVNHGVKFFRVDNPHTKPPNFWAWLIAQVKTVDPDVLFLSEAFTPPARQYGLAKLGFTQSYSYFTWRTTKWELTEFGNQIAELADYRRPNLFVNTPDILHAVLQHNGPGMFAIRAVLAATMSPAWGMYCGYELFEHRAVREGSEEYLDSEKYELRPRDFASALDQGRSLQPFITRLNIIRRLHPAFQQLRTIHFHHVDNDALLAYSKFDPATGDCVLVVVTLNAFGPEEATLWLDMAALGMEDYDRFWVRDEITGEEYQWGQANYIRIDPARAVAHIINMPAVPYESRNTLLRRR
Experiment: Inhibition of recombinant Mycobacterium tuberculosis H37Rv GlgE expressed in Escherichia coli BL21 (DE3) rosetta cells using maltose-1-phosphate as substrate measured every 5 secs for 30 mins by purine nucleoside phosphorylase-coupled assay

SMILES: O=P(O)(O)C[C@H]1O[C@H](CO)[C@@H](O[C@H]2O[C@H](CO)[C@@H](O)[C@H](O)[C@H]2O)[C@H](O)[C@H]1O
- IC50: 230 µM
